Experimental data: PMC5844868, “Increased intracellular activity of MP1102 and NZ2114 against Staphylococcus aureus in vitro and in vivo” (Scientific Reports, 2018)
Values after ≈ are worked out from the molar mass of the structure shown. Like-named read-outs stand apart in the source and are kept apart here. Peptide text beside a SMILES is read from it.

Columns and labels:
IL-10 = assay: Cytokine ELISA in S. aureus-infected RAW 264.7 cells; assay type: cell-based, mouse; conditions: 25 μg/ml, 24 h after treatment
Procedure: (§1) To investigate the effects of MP1102 and NZ2114 on cytokine levels in cells infected with S. aureus, RAW264.7 cells (2.5 × 10^5 cells/ml) seeded into 12-well plates were incubated with MRSA ATCC43300 (MOI = 100:1) for 30 min followed by treatment with 50 μg/ml lysostaphin for 1 h to remove non-phagocytosed bacteria. The cells were then treated with 25 μg/ml MP1102, NZ2114 and vancomycin for 12 h and 24 h. Cell-free culture supernatants were collected and the concentrations of cytokines (TNF-α, IL-1β and IL-10) were determined by Jiaxuan Biotech. Co. Ltd. (Beijing, China) using an ELISA kit[58],[59].

IL-1β = assay: as above; assay type: cell-based, mouse; conditions: 25 μg/ml, 24 h after infection with MRSA ATCC43300; range over treatments
Procedure: as §1

MSSA ATCC25923 [1] = assay: Mouse peritonitis model; assay type: in vivo
Procedure: The mice were infected by peritoneal injection with different S. aureus strains, including MSSA ATCC25923 (5 × 10^8 CFU), MRSA ATCC43300 (5 × 10^8 CFU) and high virulent CVCC546 (5 × 10^7 CFU), and treated with a single dose of drugs ([…], 20, 30 and 40 mg/kg for ATCC43300 and CVCC546) at 10 min after infection. Twenty-four hours after treatment, the mice were killed and peritoneal fluids were obtained by washing with 5 ml ice-cold PBS. The total number of bacteria in the fluids was determined before any further procedures and then divided into two equal fractions of 1.5 ml each for the following purposes: i) for extracellular bacteria quantification, one fraction was centrifuged for 10 min at 4 °C (300 g) and the supernatant CFU count was quantified and ii) for intracellular bacteria quantification, the other fraction was centrifuged for 5 min at 4 °C (1,000 rpm). The cells were collected and treated with 100 μg/ml gentamicin (MSSA ATCC25923) or 50 μg/ml lysostaphin (MRSA ATCC43300 and high virulent CVCC546) for 1 h at 37 °C to kill extracellular bacteria. The cells were washed twice with ice-cold PBS to remove any anti-extracellular bacterial drug. Subsequently, the cells were lysed and counted as described above for the in vitro experiment method[14],[54].

[2] = test system: virulent staphylococcal strains; conditions: relative efficacy; cited from earlier work
Source text: This study is the first evaluation of the intracellular anti-staphylococcal properties of the NZ2114 derivative MP1102 using both in vitro and in vivo methods. […] As a corresponding in vivo mouse model, RAW 264.7 macrophages were chosen to evaluate in vitro intracellular activity in this study.

MSSA ATCC25923 [3] = assay: MIC in MHB at pH 7.3 and 5.0; assay type: cell-based; conditions: Staphylococcus aureus
MRSA ATCC43300 [4] = assay: MIC in MHB at pH 7.3 and 5.0; assay type: cell-based; conditions: Staphylococcus aureus
RAW 264.7 macrophages = assay type: cell-based, mouse; conditions: 24 h, MTT
Procedure: The cytotoxicity of MP1102 and NZ2114 was tested by a colorimetric 3-(4, 5-dimethyl-2-thiazolyl)-2, 5-diphenyl-2-H-tetrazolium bromide (MTT) assay. Cells were added into 96-well microtiter plates (2.5 × 10^4 cells/well) and incubated for 24 h. After another 24 h incubation with MP1102 and NZ2114 (1 to 256 μg/ml), MTT solution was added and incubated for 4 h. Followed the removing of the MTT, dimethyl sulfoxide (DMSO) (150 μl/well) was added and the absorbance was measured at 570 nm. Untreated cells were used as a control. The cell survival rate was calculated using the following formula: survival rate (%) = Abs570 nm of treated sample / Abs570 nm of control × 100. The cytotoxicity detection was repeated in triplicate.
118 were incubated with 1-256 μg/ml for 24 h and subsequently cell viability was determined using the MTT
119 assay. Results are means ± S.D. for three experiments.
(1 picture or pasted object on this page, not shown here)

MRSA ATCC43300 [5] = assay: Extracellular dose-response in broth, 24 h; assay type: cell-based, Staphylococcus aureus
Procedure: (§2) Dose-response curves for the extracellular activities of the peptides were performed as previously described with some modifications[2],[14],[56],[57]. For extracellular activity, MSSA ATCC25923, MRSA ATCC43300 and high virulent S. aureus CVCC546 cells were adjusted to a density of 10^5 CFU/ml.
(§3) The Hill equation was used to analyze the dose-effect relationships of the intracellular and extracellular activities of MP1102 and NZ2114 against S. aureus. The Emax, Cs and goodness of fit (R^2) were calculated by non-linear regression using GraphPad Prism version 6 (GraphPad Prism Software, San Diego, CA, USA). The other statistical procedures, means and SEMs were performed and calculated using IBM SPSS Statistics 21.0.

MSSA ATCC25923 [6] = assay: Extracellular dose-response in broth, 24 h; assay type: cell-based, Staphylococcus aureus
Procedure: as §2, §3

[7] = test system: Virulent S. aureus CVCC546; assay: Extracellular dose-response in broth, 24 h; assay type: cell-based, Staphylococcus aureus
Procedure: as §2, §3

[8] = test system: MRSA ATCC43300 phagocytosed by RAW 264.7 macrophages; assay: Intracellular dose-response in RAW 264.7 macrophages, 24 h; assay type: cell-based, Staphylococcus aureus
Procedure: (§4) For intracellular activity, RAW 264.7 macrophages (2.5 × 10^5 cells/ml) were seeded into a 6-well plate (1.5 ml/well) and cultured for 24 h in DMEM with 10% FBS (without antibiotics). Meanwhile, mid-log phase S. aureus strains (MSSA ATCC25923, MRSA ATCC43300 and high virulent CVCC546) were collected by centrifugation, diluted to a concentration of 2.5 × 10^7 CFU/ml in DMEM with 10% FBS (without antibiotic), and incubated with RAW 264.7 macrophages (1.5 ml/well) for 0.5 h. In total, 100 μg/ml gentamicin (for MSSA ATCC25923) or 50 μg/ml lysostaphin (for MRSA ATCC43300 and virulent CVCC546) was added to the cells and incubated for 1 h to remove non-phagocytosed bacteria. […] The numbers of intracellular bacteria were measured at 0 h and 24 h using the above method.
as §3

[9] = test system: MSSA ATCC25923 phagocytosed by RAW 264.7 macrophages; assay: as above; assay type: cell-based, Staphylococcus aureus; conditions: Hill equation
Procedure: as §4, §3

[10] = test system: Virulent S. aureus CVCC546 phagocytosed by RAW 264.7 macrophages; assay: as above; assay type: cell-based, Staphylococcus aureus
Procedure: as §4, §3

[11] = test system: high virulent S. aureus CVCC546; assay: Mouse peritonitis model; assay type: in vivo; conditions: 20 mg/kg, 24 h
Procedure: The mice were infected by peritoneal injection with different S. aureus strains, including MSSA ATCC25923 (5 × 10^8 CFU), MRSA ATCC43300 (5 × 10^8 CFU) and high virulent CVCC546 (5 × 10^7 CFU), and treated with a single dose of drugs (5 mg/kg for ATCC25923, 20, 30 and 40 mg/kg for ATCC43300 and CVCC546) at 10 min after infection. Twenty-four hours after treatment, the mice were killed and peritoneal fluids were obtained by washing with 5 ml ice-cold PBS. The total number of bacteria in the fluids was determined before any further procedures and then divided into two equal fractions of 1.5 ml each for the following purposes: i) for extracellular bacteria quantification, one fraction was centrifuged for 10 min at 4 °C (300 g) and the supernatant CFU count was quantified and ii) for intracellular bacteria quantification, the other fraction was centrifuged for 5 min at 4 °C (1,000 rpm). The cells were collected and treated with 100 μg/ml gentamicin (MSSA ATCC25923) or 50 μg/ml lysostaphin (MRSA ATCC43300 and high virulent CVCC546) for 1 h at 37 °C to kill extracellular bacteria. The cells were washed twice with ice-cold PBS to remove any anti-extracellular bacterial drug. Subsequently, the cells were lysed and counted as described above for the in vitro experiment method[14],[54].

macrophages = conditions: at 24 h; cited from earlier work
Source text: Due to several limitations (including protein binding conditions and differences in the pharmacokinetics) in the in vitro macrophage intracellular model, an in vivo mouse peritonitis model was also examined to further evaluate the intracellular efficiency of MP1102 and NZ2114. The intracellular bacterial killing efficacy of MP1102 and NZ2114 was decreased in vivo compared to extracellular killing, though the difference was less than the in vitro model, which may be related to the complex in vivo environment weakening the antibacterial efficiency and the eradication of extracellular bacteri ...

[12] = Hill equation, 95% CI in brackets
[13] = change at 24 h from original inoculum, extrapolated, Hill equation
[14] = static concentration, graphical interpolation
[15] = Intracellular, Hill equation, 95% CI in brackets
[16] = Intracellular, change at 24 h from original inoculum, extrapolated, Hill equation

## CC[C@H](C)[C@@H]1NC(=O)[C@H](CO)NC(=O)[C@H](CCCCN)NC(=O)[C@@H]2CSSC[C@@H](C(=O)N[C@@H](Cc3ccc(O)cc3)C(=O)O)NC(=O)[C@H](CCCCN)NC(=O)[C@@H]3CSSC[C@H](NC(=O)[C@H](CCCCN)NC(=O)[C@H](C(C)C)NC(=O)[C@H](CC(=O)O)NC(=O)[C@H](CC(=O)O)NC(=O)[C@H](CCC(=O)O)NC(=O)[C@H](CCC(=O)O)NC(=O)[C@H](Cc4c[nH]c5ccccc45)NC(=O)[C@@H]4CCCN4C(=O)CNC(=O)[C@H](CC(N)=O)NC(=O)[C@@H](NC(=O)CNC(=O)[C@H](Cc4ccccc4)NC(=O)CN)CSSC[C@H](NC(=O)[C@H](Cc4ccc(O)cc4)NC(=O)CNC(=O)CNC(=O)[C@H](CCCCN)NC(=O)[C@H](Cc4ccc(O)cc4)NC(=O)CNC(=O)[C@H](CCCCN)NC1=O)C(=O)N[C@@H](C)C(=O)N[C@@H](CCCCN)C(=O)NCC(=O)NCC(=O)N[C@@H](Cc1ccccc1)C(=O)N[C@@H](C(C)C)C(=O)N3)C(=O)N[C@@H](Cc1c[nH]cn1)C(=O)N[C@@H](CC(N)=O)C(=O)N[C@@H](Cc1c[nH]cn1)C(=O)N2 [MP1102] (HELM PEPTIDE1{G.F.G.C.N.G.P.W.E.E.D.D.V.K.C.H.N.H.C.K.S.I.K.G.Y.K.G.G.Y.C.A.K.G.G.F.V.C.K.C.Y}$PEPTIDE1,PEPTIDE1,4:R3-30:R3|PEPTIDE1,PEPTIDE1,15:R3-37:R3|PEPTIDE1,PEPTIDE1,19:R3-39:R3$$$V2.0; N-terminus and C-terminus assumed; bridges inferred)
IL-10
  IL-10 level change, in contrast to the decrease with NZ2114 and vancomycin: 4.8 pg/mL
IL-1β
  suppressed production of IL-1β: 18.7 to 49.5 pg/mL
MSSA ATCC25923 [1]; 20 mg/kg and 10 mg/kg dose, data not shown
  colonies on the plates: no colonies were observed

## Cc1onc(-c2ccccc2)c1C(=O)N[C@@H]1C(=O)N2[C@@H]1SC(C)(C)[C@@H]2C(=O)O [oxacillin]
[2]
  Emax: −0.68 log CFU

## CC[C@H]1OC(=O)[C@H](C)[C@@H](O[C@H]2C[C@@](C)(OC)[C@@H](O)[C@H](C)O2)[C@H](C)[C@@H](O[C@@H]2O[C@H](C)C[C@H](N(C)C)[C@H]2O)[C@](C)(O)C[C@@H](C)CN(C)[C@H](C)[C@@H](O)[C@]1(C)O [azithromycin]
[2]
  Emax: −0.5 log CFU

## C[C@@H](O)[C@H]1C(=O)N2C(C(=O)O)=C(SCCN=CN)C[C@H]12 [imipenem]
[2]
  Emax: −0.9 log CFU

## CN[C@H](CC(C)C)C(=O)N[C@H]1C(=O)N[C@@H](CC(N)=O)C(=O)N[C@H]2C(=O)N[C@H]3C(=O)N[C@H](C(=O)N[C@H](C(=O)O)c4cc(O)cc(O)c4-c4cc3ccc4O)[C@H](O)c3ccc(c(Cl)c3)Oc3cc2cc(c3O[C@@H]2O[C@H](CO)[C@@H](O)[C@H](O)[C@H]2O[C@H]2C[C@](C)(N)[C@H](O)[C@H](C)O2)Oc2ccc(cc2Cl)[C@H]1O [Vancomycin]
MSSA ATCC25923 [3]; pH 5, read-out: MICs
  MIC: < 0.004 µg/mL
MSSA ATCC25923 [3]; pH 7.3, read-out: MICs
  MIC: 0.125 µg/mL (≈ 0.0863 µM)
MRSA ATCC43300 [4]; pH 5, read-out: MICs
  MIC: 1 µg/mL (≈ 0.69 µM)
MRSA ATCC43300 [4]; pH 7.3, read-out: MICs
  MIC: 1 µg/mL (≈ 0.69 µM)
RAW 264.7 macrophages; 128 μg/ml
  survival rate: 100%
RAW 264.7 macrophages; 256 μg/ml
  survival rate: 85.9%
MRSA ATCC43300 [5]; [12]
  EC50: 5.40 multiples of the MIC
MRSA ATCC43300 [5]; [13]
  Emax (log CFU, 95% CI): −5.89 log CFU
MRSA ATCC43300 [5]; [14]
  Cs: ~5.88 multiples of the MIC
MSSA ATCC25923 [6]; [12]
  EC50: 1.87 multiples of the MIC
MSSA ATCC25923 [6]; [13]
  Emax (log CFU, 95% CI): −5.37 log CFU
MSSA ATCC25923 [6]; [14]
  Cs: ~1.48 multiples of the MIC
[7]; [12]
  EC50: 0.92 multiples of the MIC
[7]; [13]
  Emax (log CFU, 95% CI): −5.85 log CFU
[7]; [14]
  Cs: ~1.10 multiples of the MIC
[8]; [15]
  EC50: 1.10 multiples of the MIC
[8]; [16]
  Emax (log CFU, 95% CI): 0.43 log CFU
[8]; intracellular, 24 h
  resistant rates for the highest test concentrations compared to the untreated group: 93.03%
[9]; 95% CI in brackets
  EC50: 24.29 multiples of the MIC
[9]; change at 24 h from original inoculum, extrapolated to infinitely high concentration
  Emax (log CFU, 95% CI): −4.85 log CFU
[10]; [15]
  EC50: 3.53 multiples of the MIC
[10]; [16]
  Emax (log CFU, 95% CI): 0.46 log CFU
[10]; intracellular, 24 h
  resistant rates for the highest test concentrations compared to the untreated group: 99.68%
IL-10
  IL-10 levels decreased by: 12.0 pg/mL
MSSA ATCC25923 [1]; 5 mg/kg, 24 h
  effect on bacterial load: no significant effects were observed
[11]
  log reduction, extracellular: 4.9 log
  log reduction, intracellular: 3.7 log
  log reduction, total: 3.9 log
macrophages
  accumulation in macrophages: up to 8 fold
